Assay results taken from PMC2754045 (Biochemistry, 2009).
Like-named read-outs stand apart in the source and are kept apart here. Marks after values point to notes of the source that are not given here. Bridges are numbered along the chain shown (N, C = ends). Where no end group is shown, it is not given here.

Legend:
[1] = cited from earlier work
mTRΔ8 [2] = target: T1, mTRΔ8 (Mus musculus, UniProt Q9JLT4); experiment: Substrate reduction by truncated mammalian TR; format: biochemical; details: for pH optimum of substrate reduction: truncated Δ8 enzyme; for Reduction by the truncated enzyme (in words): direct reduction by the N-terminal reaction center
DmTRΔ8 [3] = target: T2, DmTRΔ8 (Drosophila melanogaster, UniProt P91938); experiment: Substrate reduction by truncated Drosophila TR; format: biochemical
DmTR-SCCS = DmTR-SCCS (Drosophila melanogaster, UniProt P91938); experiment: Substrate reduction by full-length Drosophila TR
mTR-GCUG [4] = target: T3, mTR-GCUG (Mus musculus, UniProt Q9JLT4); experiment: Substrate reduction by full-length wild type mammalian TR
mTRΔ8 [5] = target: T1, mTRΔ8; experiment: Inhibition of TR by gold compounds; format: biochemical; details: truncated enzyme missing C-terminal tail, 2 nM enzyme, 3 mM DTNB, pH 7.4
mTR-GCUG [6] = target: T3, mTR-GCUG; experiment: Inhibition of TR by gold compounds; format: biochemical; details: full-length wild type (Sec) enzyme, 4 nM enzyme, 3 mM DTNB, pH 7.4
mTR-GCCG = mTR-GCCG (Mus musculus, UniProt Q9JLT4); format: biochemical; details: full-length enzyme without Sec (Cys2 mutant), 4 nM enzyme, 3 mM DTNB, pH 7.4
DmTRΔ8 [7] = target: T2, DmTRΔ8; details: pH 7.0; cited from earlier work
mTRΔ8 [8] = target: T1, mTRΔ8; details: pH 7.0; cited from earlier work

T2 sequence (P91938 1-483 isoform P91938-2 limits assumed): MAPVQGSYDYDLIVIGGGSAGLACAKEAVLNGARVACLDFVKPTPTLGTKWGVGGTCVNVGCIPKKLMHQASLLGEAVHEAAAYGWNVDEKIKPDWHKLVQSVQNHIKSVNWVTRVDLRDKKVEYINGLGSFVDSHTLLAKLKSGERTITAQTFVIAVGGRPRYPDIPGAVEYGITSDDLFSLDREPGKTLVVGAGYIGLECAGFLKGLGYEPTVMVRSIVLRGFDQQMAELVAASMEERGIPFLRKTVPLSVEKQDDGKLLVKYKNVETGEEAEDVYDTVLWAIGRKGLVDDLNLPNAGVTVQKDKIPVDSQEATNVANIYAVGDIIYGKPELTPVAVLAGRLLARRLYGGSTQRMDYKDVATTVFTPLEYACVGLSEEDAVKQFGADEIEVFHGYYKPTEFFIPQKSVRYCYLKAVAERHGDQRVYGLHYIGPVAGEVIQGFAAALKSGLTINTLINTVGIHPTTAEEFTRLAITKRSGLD
Chain of DmTR-SCCS (P91938 1-491 isoform P91938-2): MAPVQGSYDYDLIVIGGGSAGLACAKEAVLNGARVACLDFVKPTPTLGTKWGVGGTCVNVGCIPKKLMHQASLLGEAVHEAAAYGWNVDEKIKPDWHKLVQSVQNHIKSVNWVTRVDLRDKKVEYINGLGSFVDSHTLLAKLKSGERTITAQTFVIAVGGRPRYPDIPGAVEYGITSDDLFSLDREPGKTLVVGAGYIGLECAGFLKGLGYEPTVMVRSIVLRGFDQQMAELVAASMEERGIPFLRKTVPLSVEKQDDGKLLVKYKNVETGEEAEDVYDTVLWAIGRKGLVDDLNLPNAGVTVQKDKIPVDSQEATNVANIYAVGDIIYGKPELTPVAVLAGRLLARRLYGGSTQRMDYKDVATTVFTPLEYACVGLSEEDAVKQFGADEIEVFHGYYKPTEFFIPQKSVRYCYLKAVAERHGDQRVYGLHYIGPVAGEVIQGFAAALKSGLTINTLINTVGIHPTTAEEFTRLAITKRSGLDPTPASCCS

O[C@@H]1CSSC[C@H]1O (relative stereo) [DTT(ox), trans-4,5-dihydroxy-1,2-dithiane]
Leaving Group pKa [1]: 9.2 ^e | Activity at 5 mM Substrate (mTRΔ8 [2]; pH 7.0): 0.234 mol NADPH/min/mol TR | Activity at 5 mM Substrate (DmTRΔ8 [3]; pH 7.0): 0.109 mol NADPH/min/mol TR

O=C(O)c1cc(SSc2ccc([N+](=O)[O-])c(C(=O)O)c2)ccc1[N+](=O)[O-] [DTNB, 5,5′dithio-bis(2-nitrobenzoic acid), reference compound]
Activity at 5 mM Substrate (mTRΔ8 [2]; pH 7.0): 2430 mol NADPH/min/mol TR | Activity at 5 mM Substrate (DmTRΔ8 [3]; pH 7.0): 519 mol NADPH/min/mol TR

N[C@@H](CCC(=O)N[C@@H](CSN=O)C(=O)NCC(=O)O)C(=O)O [GSNO, S-nitrosoglutathione]
Leaving Group pKa ([1]; HNO in GSNO): 4.7

O=C(O)CCCC[C@@H]1CCSS1 [Lipoic Acid, lipoic acid]
kcat increase compared to the WT enzyme at pH 7.0 (mTRΔ8 [2]; mTRΔ8 at pH 6.1): ~3.6 fold | Activity at 5 mM Substrate (mTRΔ8 [2]; pH 6.1): 102 mol NADPH/min/mol TR | Activity at 5 mM Substrate (mTRΔ8 [2]; pH 7.0): 87.7 mol NADPH/min/mol TR | pH optimum of substrate reduction (mTRΔ8 [2]): 6.1 | pH optimum of substrate reduction (DmTR-SCCS; full-length DmTR): ~7.5 | pH optimum of substrate reduction (mTR-GCUG [4]; full-length enzyme): ~7.5 | Turnover faster in comparison to DTT(ox) (DmTRΔ8 [3]; 5 mM substrate, pH 7.0): 190 fold | Activity at 5 mM Substrate (DmTRΔ8 [3]; pH 7.0): 20.8 mol NADPH/min/mol TR | pH optimum of substrate reduction (DmTRΔ8 [3]; truncated DmTRΔ8): ~7.5

CC(=O)OC[C@H]1O[C@@H]([S-])[C@H](OC(C)=O)[C@@H](OC(C)=O)[C@@H]1OC(C)=O.CCP(CC)CC.[Au+] [auranofin]
IC50 (mTRΔ8 [5]): 850 nM | IC50 (mTR-GCUG [6]): 75 nM

OC[C@H]1O[C@H]([S-])[C@H](O)[C@@H](O)[C@@H]1O.[Au+] [aurothioglucose]
IC50 (mTR-GCCG): 142 nM | IC50 (mTRΔ8 [5]): 25 nM | IC50 (mTR-GCUG [6]): 83 nM

N[C@@H](CSSC[C@H](N)C(=O)O)C(=O)O [cystine]
Leaving Group pKa ([1]; thiolate): ~ 8.3 | Reduction by the truncated enzyme (in words) (mTRΔ8 [2]): could not be reduced | Reduction by the WT enzyme (in words) (mTR-GCUG [4]): cannot be reduced

NC(=O)CCCCC1CCSS1 (centres unmarked) [lipoamide]
Higher activity in presence of 50 mM acetate (mTRΔ8 [2]; pH 6.1): 23.6% | Higher activity in presence of 50 mM acetate (mTRΔ8 [2]; pH 7.0): 17.5% | Drop in Km compared to lipoic acid (mTRΔ8 [2]; truncated enzyme): ~3 fold | pH optimum of substrate reduction (mTRΔ8 [2]): ~ 8.5

O=[Se]([O-])[O-].[Na+].[Na+] [selenite, sodium selenite]
Activity lower than the WT enzyme (mTRΔ8 [2]; mTRΔ8 versus WT, pH 7.0): 6 fold | pH optimum of substrate reduction (mTRΔ8 [2]): ~6.0

N[C@@H](C[Se][Se]C[C@H](N)C(=O)O)C(=O)O [selenocystine]
Reduction by the truncated enzyme (in words) (mTRΔ8 [2]): cannot directly reduce | pH optimum of substrate reduction (mTRΔ8 [2]): ~8.0 | Difference in activities between the mammalian enzyme and DmTR (DmTR-SCCS; pH 7.0, 91 μM substrate): ~ 3 fold

O=S(O)O [sulfite]
Activity as substrate (in words) (mTR-GCUG [4]; TR form not stated, data not shown): unable to detect activity

PTPASCCS(ox): Cys1-Cys2 vicinal disulfide peptide substrate of DmTR (disulfide 6-7)
Activity at 5 mM Substrate (DmTRΔ8 [7]): 233 mol NADPH/min/mol TR

PTVTGCCG(ox): peptide containing a Cys1-Cys2 vicinal disulfide bond (8-membered ring) (disulfide 6-7)
Activity at 5 mM Substrate (mTRΔ8 [8]): 0.153 mol NADPH/min/mol TR
